The values that follow come from patent US20260176270A1 (Exelixis, Inc., priority 2022, published 2026).

One assay has as its target T1, PKMYT1 (Homo sapiens, UniProt Q99640).
T1 construct: PKMYT1 (93 kD, full length, N-terminal GST tag from Signal Chem); GST (N); purchased Signal Chem
T1 sequence (Q99640 1-499): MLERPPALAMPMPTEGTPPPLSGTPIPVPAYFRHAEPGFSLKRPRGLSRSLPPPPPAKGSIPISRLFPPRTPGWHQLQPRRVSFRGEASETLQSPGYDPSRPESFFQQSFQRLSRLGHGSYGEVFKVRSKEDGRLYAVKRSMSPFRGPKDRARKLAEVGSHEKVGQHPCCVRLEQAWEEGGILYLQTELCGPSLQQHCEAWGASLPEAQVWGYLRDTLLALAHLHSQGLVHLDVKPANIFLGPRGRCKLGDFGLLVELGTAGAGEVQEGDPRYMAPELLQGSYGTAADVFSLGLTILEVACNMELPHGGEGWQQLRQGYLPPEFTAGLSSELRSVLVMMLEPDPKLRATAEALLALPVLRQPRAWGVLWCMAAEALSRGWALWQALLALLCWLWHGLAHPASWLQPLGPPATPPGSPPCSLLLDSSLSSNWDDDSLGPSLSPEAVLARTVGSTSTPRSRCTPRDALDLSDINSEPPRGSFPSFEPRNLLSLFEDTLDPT
Put plainly: ADP-Glo PKMYT1 ATP-depletion assay. As to conditions: 50 nM PKMYT1, 13.3 nM CDK1, read-out: Biochemical IC50. In a few lines:
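Full-length N-terminal GST-tagged PKMYT1 (50 nM) with GST-CDK1 (13.3 nM) as substrate and 88 µM ATP, in Hepes buffer with MgCl2, MnCl2, DTT and BSA; DMSO <1%. Incubated 120 min at RT. ADP formed was quantified by ADP-Glo luminescence and used to derive biochemical IC50.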

Assay [1] has as its system phosphorylation of CDK1 at Thr14 in HCC1806 cells. Put plainly: Cell lysate AlphaLISA assay measuring inhibition of phosphorylation of CDK1 Thr14. The format is cell-based. As to conditions: read-out: Cellular IC50. In a few lines: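 HCC1806 cells seeded overnight, then treated 4 h at 37 °C, 5% CO2 with compounds in DMSO; washed and lysed, lysates frozen overnight at −80 °C. CDK1 Thr14 phosphorylation read by AlphaLISA SureFire Ultra; data normalized to DMSO (0% inhibition) and 3 μM reference compound to give IC50.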
(In Alpha technology, singlet oxygen from a donor bead excites a nearby acceptor bead.)

SMILES strings stand for the structures. Where two headings read alike, the source gives them in different places.

The IC50 is the concentration that gives 50% inhibition. For `NC(=O)c1nc2cccnc2c(-c2ccc3c[nH]nc3c2)c1N` [Compound 204], the IC50 at PKMYT1 was 1000 to 5000 nM; in assay [1] (Homo sapiens, HCC1806, 4 h) it was at least 5000 nM.
The like results for `Cc1ccc(O)c(C)c1-c1c(N)c(C(N)=O)nc2nccnc12` [Compound 126, 7-amino-8-(3-hydroxy-2,6-dimethylphenyl)pyrido[2,3-b]pyrazine-6-carboxamide] were, in that order, under 50 nM and 50 to 500 nM.
The like results for `COc1cc(-c2c(N)c(C(N)=O)nc3cccnc23)cnc1C` [Compound 238] were, in that order, 1000 to 5000 nM and at least 5000 nM.
Turning to `COc1cncc(-c2c(N)c(C(N)=O)cc3nccnc23)c1C` [Compound 107, 7-amino-8-(5-methoxy-4-methylpyridin-3-yl)quinoxaline-6-carboxamide], the half-maximal inhibitory concentration (IC50) at PKMYT1 is 50 to 500 nM; in assay [1] (Homo sapiens, HCC1806, 4 h), at least 5000 nM.
Turning to `Cc1c(O)cccc1-c1c(N)c(C(N)=O)cc2nc(C)c(=O)n(C)c12` [Compound 138], the half-maximal inhibitory concentration (IC50) at PKMYT1 was in the range of 50 to 500 nM; in assay [1] (4 hours), 1000 to 5000 nM.
`Cc1c(-c2c(N)c(C(N)=O)cc3nccnc23)ccnc1O` [Compound 159]: the 50% inhibitory concentration (IC50) at PKMYT1 was at least 5000 nM; in assay [1] (Homo sapiens, HCC1806, 4 h) it was at least 5000 nM.
For `Cc1c(O)cccc1-c1c(N)c(C(N)=O)cc2nccc(C#N)c12` [Compound 241], the half-inhibitory concentration (IC50) was under 50 nM on PKMYT1 and under 50 nM in assay [1] (Homo sapiens, HCC1806, 4 h).
For `Cc1c(O)cccc1-c1c(N)c(C(N)=O)nc2cc(C(F)(F)F)cnc12` [Compound 161], the IC50 at PKMYT1 is under 50 nM; in assay [1] (4 hours), 50 to 500 nM.
For the compound `Cc1ccc(O)c(C)c1-c1c(N)c(C(N)=O)nc2cccnc12` [Compound 3, 3-Amino-4-(3-hydroxy-2,6-dimethylphenyl)-1,5-naphthyridine-2-carboxamide], the IC50 on PKMYT1 was under 50 nM; in assay [1] (Homo sapiens, HCC1806, 4 h), 50 to 500 nM.
Take `Cc1c(O)cccc1-c1c(N)c(C(N)=O)cc2ncc(C(F)(F)F)nc12` [Compound 115, 7-Amino-8-(3-hydroxy-2-methylphenyl)-2-(trifluoromethyl)quinoxaline-6-carboxamide]: the values for the IC50 (at PKMYT1; in assay [1] (4 hours)) were 50 to 500 nM and 500 to 1000 nM, respectively.
Regarding `Cc1c(O)cccc1-c1c(N)c(C(N)=O)cc2nc(O)c(C(F)(F)F)nc12` [Compound 137], the concentration for half-maximal inhibition (IC50) was 1000 to 5000 nM on PKMYT1 and at least 5000 nM in assay [1] (Homo sapiens, HCC1806, 4 h).
For the compound `Cc1cc(CO)ccc1-c1c(N)c(C(N)=O)nc2cccnc12` [Compound 221], the IC50 on PKMYT1 is at least 5000 nM; in assay [1] (Homo sapiens, HCC1806, 4 h), at least 5000 nM.
Take `Cc1c(O)cncc1-c1c(N)c(C(N)=O)nc2cccnc12` [Compound 155]: the IC50 at PKMYT1 lay within 50 to 500 nM; in assay [1] (Homo sapiens, HCC1806, 4 h), 500 to 1000 nM.
As for `COc1ncncc1-c1c(N)c(C(N)=O)nc2cccnc12` [Compound 231], the IC50 is 500 to 1000 nM at PKMYT1 and at least 5000 nM in assay [1] (Homo sapiens, HCC1806, 4 h).
With `NC(=O)c1nc2cccnc2c(-c2cccc3c2CCN3)c1N` [Compound 160], the IC50 was at least 5000 nM on PKMYT1 and 500 to 1000 nM in assay [1] (Homo sapiens, HCC1806, 4 h).
As to `Cc1c(O)cccc1-c1c(N)c(C(N)=O)cc2ncccc12` (atropisomer, axis not shown; (P)) [Compound 69, (P)-6-amino-5-(3-hydroxy-2-methylphenyl)quinoline-7-carboxamide], the 50% inhibitory concentration (IC50) on PKMYT1 was 1000 to 5000 nM; in assay [1] (4 hours), at least 5000 nM.
`Cc1ccc(O)c(C)c1-c1c(N)c(C(N)=O)cc2nccnc12` [Compound 82, 7-Amino-8-(3-hydroxy-2,6-dimethylphenyl)quinoxaline-6-carboxamide]: the IC50 on PKMYT1 was under 50 nM; in assay [1] (Homo sapiens, HCC1806, 4 h), 50 to 500 nM.
For `Cc1ccc(O)c(C)c1-c1cc(C(N)=O)nc2ccccc12` [Compound 12, 4-(3-Hydroxy-2,6-dimethylphenyl)quinoline-2-carboxamide], the IC50 at PKMYT1 is 1000 to 5000 nM; in assay [1] (Homo sapiens, HCC1806, 4 h), 50 to 500 nM.
The like results for `NC(=O)c1cc2nccnc2c(-c2cccn3cncc23)c1N` [Compound 216] were, in that order, 1000 to 5000 nM and at least 5000 nM.
`Cc1c(-c2c3c(cc4nccnc24)C(=O)NC(C)(C)N3)ccc(F)c1O` (atropisomer, axis not shown) [Compound 313]: the half-inhibitory concentration (IC50) (at PKMYT1; in assay [1] (4 hours)) was at least 5000 nM in each case.
